This note sets out measurements from patent US6140368A, “Naphthols useful in antiviral methods” (The Regents of the University of California, priority 1998, dated 2000).

The first test deals with HIV reverse transcriptase (Human immunodeficiency virus type 1 group M subtype B, UniProt P03366). The experiment in a line: Reverse transcriptase scintillation proximity assay (Example 4, Table 2). The format is biochemical. The note with it: 10 μM inhibitor; relative to dimethyl sulfoxide = 100%; 3 min. How it is done:
Reverse transcriptase ("RT") activity is measured using a scintillation proximity assay kit available from Amersham Life Sciences, Inc., which uses a biotin/streptavidin bead capture system. RNA-dependent polymerase activity is measured using purified […] and a synthetic 17mer/50mer RNA-DNA template-primer containing biotin at the 5' end of the DNA. The template-primer, buffer, dNTP, and inhibitor are incubated for 10 minutes at 37° C. before the RT is added. The final 100 μl reaction mixture contains: 39 nm of template primer, buffer (40 mM tris HCl at pH 8.0, 10 mM MgCl2, 60 mM KCl, 10 mM dithiothreitol); 75 nM of each dNTP except dTTP; 25 nM dTTP and 35 nM tritium labeled d*TTP; 10 μM inhibitor; and 1.0-2.0 μg of RT. After three minute incubation, the reaction is quenched with 40 μl of 0.56M EDTA. Then 10 μl of streptavidin SPA beads (in suspension) are added and incubated at 37° C. for 10 minutes. Finally, 850 μl of a buffer containing 10 mM Tris HCl pH 7.4 and 0.15M NaCl is added. The signal is produced by biotinylated polymers incorporating d*TTP binding to the streptavidin beads which stimulate the scintillant. The amount of d*TTP incorporated in the polymer is measured with a scintillation counter.
Compounds showing good inhibition will give a low number of counts/min (cpm). This number is related to a standard, dimethyl sulfoxide, which is given an arbitrary 100% relative activity. All cpm data in a single run are given a percent of this standard.
As for `O=C(Nc1ccc2c(O)c(N=Nc3ccc([As](=O)(O)O)cc3)c(S(=O)(=O)O)cc2c1)Nc1ccc2c(O)c(N=Nc3ccc([As](=O)(O)O)cc3)c(S(=O)(=O)O)cc2c1` [Compound 48], the “% RT activity remaining at 10 μM” value is recorded as 17%.

Staying with this test, now noted: 10 μM inhibitor; relative to dimethyl sulfoxide = 100%; 3 min, 10 µM.
Regarding `CCOC(=O)c1ccc(NC(=O)Nc2ccc3c(O)cc(S(=O)(=O)O)cc3c2)cc1` [Compound 28], the “% RT activity remaining at 10 μM” value was determined as 100%.

Take `O=C(O)c1ccc(N=Nc2c(S(=O)(=O)O)cc3cc(NC(=O)c4cccc(C(=O)Nc5ccc6c(O)c(N=Nc7ccc(C(=O)O)cc7)c(S(=O)(=O)O)cc6c5)n4)ccc3c2O)cc1` [Compound 127]: the “% RT activity remaining at 10 μM” value is reported as “.14%”.

Staying with this test, now noted: 0.05 h, 10 μM inhibitor; relative to dimethyl sulfoxide = 100%; read-out: % RT activity remaining at 10 μM.
For `O=C(Nc1ccc2c(O)cccc2c1)Nc1ccc2c(O)cc(S(=O)(=O)O)cc2c1` [Compound 6], the remaining activity at 10 µM was 84%.

For the compound `O=C(Nc1ccc2ccc(S(=O)(=O)O)cc2c1)Nc1ccc2c(O)cc(S(=O)(=O)O)cc2c1` [Compound 7], the remaining activity at 10 µM was found to be 78%.

Consider `O=C(Nc1ccc2c(O)cc(S(=O)(=O)O)cc2c1)Nc1ccc2cc(S(=O)(=O)O)cc(S(=O)(=O)O)c2c1` [Compound 8], for which the remaining activity at 10 µM worked out at 83%.

As to `O=C(Nc1ccc2c(O)cc(S(=O)(=O)O)cc2c1)Nc1ccc2cc(S(=O)(=O)O)cc(O)c2c1` [Compound 9], the remaining activity at 10 µM came out at 75%.

For the compound `O=C(Nc1ccc2c(O)cc(S(=O)(=O)O)cc2c1)Nc1cccc2ccc(S(=O)(=O)O)cc12` [Compound 10], the remaining activity at 10 µM came out at 88%.

As to `O=C(Nc1ccc2c(O)cc(S(=O)(=O)O)cc2c1)Nc1cccc2ccccc12` [Compound 11], the remaining activity at 10 µM turned out to be 90%.

Consider `CC(NC(=O)Nc1ccc2c(O)cc(S(=O)(=O)O)cc2c1)c1ccc(F)cc1` (centres unmarked) [Compound 12], for which the remaining activity at 10 µM was 88%.

With `O=C(Nc1ccc2ccccc2c1)Nc1ccc2c(O)cc(S(=O)(=O)O)cc2c1` [Compound 13], the remaining activity at 10 µM turned out to be 82%.

With `O=C(Nc1cnc2ccccc2c1)Nc1ccc2c(O)cc(S(=O)(=O)O)cc2c1` [Compound 14], the remaining activity at 10 µM was determined as 90%.

As for `O=C(Nc1ccc2c(c1)C(=O)c1ccccc1C2=O)Nc1ccc2c(O)cc(S(=O)(=O)O)cc2c1` [Compound 15], the remaining activity at 10 µM was found to be 88%.

With `O=C(Nc1ccc2c(O)cc(S(=O)(=O)O)cc2c1)Nc1cccc2c(=O)[nH][nH]c(=O)c12` [Compound 16], the remaining activity at 10 µM is 81%.

For the compound `COC(=O)C(Cc1c[nH]c2ccccc12)NC(=O)Nc1ccc2c(O)cc(S(=O)(=O)O)cc2c1` (centres unmarked) [Compound 17], the remaining activity at 10 µM was found to be 82%.

In the case of `Nc1cccc2c(NC(=O)Nc3ccc4c(O)cc(S(=O)(=O)O)cc4c3)cccc12` [Compound 19], the remaining activity at 10 µM came out at 80%.

As to `O=C(Nc1ccc2c(O)cc(S(=O)(=O)O)cc2c1)Nc1cccc2c1C(=O)c1ccccc1C2=O` [Compound 20], the remaining activity at 10 µM came out at 86%.

Take `O=C(Nc1ccc2c(O)cc(S(=O)(=O)O)cc2c1)c1ccccc1` [Compound 21]: the remaining activity at 10 µM was 108%.

For `CC(=O)Nc1ccc2c(OC(C)=O)cc(S(=O)(=O)O)cc2c1` [Compound 22], the remaining activity at 10 µM worked out at 100%.

Turning to `O=C1c2ccccc2C(=O)N1c1ccc2c(O)cc(S(=O)(=O)O)cc2c1` [Compound 23], the remaining activity at 10 µM was found to be 100%.

With `COC(=O)c1ccccc1NC(=O)Nc1ccc2cc(S(=O)(=O)O)cc(O)c2c1` [Compound 24], the remaining activity at 10 µM was determined as 90%.

On to `CCOC(=O)c1ccc(NC(=O)Nc2ccc3c(O)cc(S(=O)(=O)O)cc3c2)cc1` [Compound 25], for which the remaining activity at 10 µM worked out at 86%.

For the compound `COC(=O)c1cc(NC(=O)Nc2ccc3c(S(=O)(=O)O)cc(S(=O)(=O)O)cc3c2)cc(C(=O)OC)c1` [Compound 26], the remaining activity at 10 µM is 88%.

`COC(=O)c1cc(NC(=O)Nc2ccc3cc(S(=O)(=O)O)cc(O)c3c2)cc(C(=O)OC)c1` [Compound 27]: the remaining activity at 10 µM was 80%.

With `COC(=O)c1ccccc1NC(=O)Nc1ccc2c(O)cc(S(=O)(=O)O)cc2c1` [Compound 29], the remaining activity at 10 µM was found to be 108%.

For the compound `CCOC(=O)c1ccc(N=Nc2c(S(=O)(=O)O)cc3cc(NC(=O)Nc4ccc5c(O)c(N=Nc6ccc(C(=O)OCC)cc6)c(S(=O)(=O)O)cc5c4)ccc3c2O)cc1` [Compound 44], the remaining activity at 10 µM stood at 19%.

In the case of `CCOC(=O)c1cccc(NC(=O)Nc2ccc3cc(S(=O)(=O)O)cc(O)c3c2)c1` [Compound 75], the remaining activity at 10 µM came to 85%.

With `O=C(Nc1ccc2cc(S(=O)(=O)O)cc(O)c2c1)Nc1ccc2cc(S(=O)(=O)O)cc(O)c2c1` [Compound 77], the remaining activity at 10 µM amounted to 84%.

Take `O=C(Nc1ccc2cc(S(=O)(=O)O)cc(S(=O)(=O)O)c2c1)Nc1ccc2cc(S(=O)(=O)O)cc(S(=O)(=O)O)c2c1` [Compound 78]: the remaining activity at 10 µM came to 80%.

As for `O=C(Nc1ccc(S(=O)(=O)O)c2ccccc12)Nc1ccc(S(=O)(=O)O)c2ccccc12` [Compound 79], the remaining activity at 10 µM worked out at 78%.

For the compound `O=C(Nc1ccc2ccc(S(=O)(=O)O)cc2c1)Nc1ccc2ccc(S(=O)(=O)O)cc2c1` [Compound 80], the remaining activity at 10 µM was found to be 84%.

On to `O=C(Nc1ccc2c(S(=O)(=O)O)cccc2c1)Nc1ccc2c(S(=O)(=O)O)cccc2c1` [Compound 81], for which the remaining activity at 10 µM worked out at 78%.

For `O=C(Nc1ccc2cc(S(=O)(=O)O)ccc2c1)Nc1ccc2cc(S(=O)(=O)O)ccc2c1` [Compound 82], the remaining activity at 10 µM came to 92%.

In the case of `COC(=O)c1cc(NC(=O)Nc2ccc3c4c(cccc24)C(=O)OC3=O)cc(C(=O)OC)c1` [Compound 83], the remaining activity at 10 µM came out at 77%.

In the case of `CCOC(=O)c1ccc(N=Nc2c(S(=O)(=O)O)cc3ccc(NC(=O)Nc4ccc5cc(S(=O)(=O)O)c(N=Nc6ccc(C(=O)OCC)cc6)c(O)c5c4)cc3c2O)cc1` [Compound 84], the remaining activity at 10 µM was found to be 1.7%.

As to `O=C(O)c1ccc(N=Nc2c(S(=O)(=O)O)cc3cc(NC(=O)c4cccc(C(=O)Nc5ccc6c(O)c(N=Nc7ccc(C(=O)O)cc7)c(S(=O)(=O)O)cc6c5)n4)ccc3c2O)cc1` [Compound 118], the remaining activity at 10 µM amounted to 0.25%.

For the compound `O=C(O)Cc1ccc(N=Nc2c(S(=O)(=O)O)cc3cc(NC(=O)c4cccc(C(=O)Nc5ccc6c(O)c(N=Nc7ccc(CC(=O)O)cc7)c(S(=O)(=O)O)cc6c5)n4)ccc3c2O)cc1` [Compound 119], the remaining activity at 10 µM was determined as 0.29%.

Consider `O=C(O)CCc1ccc(N=Nc2c(S(=O)(=O)O)cc3cc(NC(=O)c4cccc(C(=O)Nc5ccc6c(O)c(N=Nc7ccc(CCC(=O)O)cc7)c(S(=O)(=O)O)cc6c5)n4)ccc3c2O)cc1` [Compound 120], for which the remaining activity at 10 µM stood at 0.21%.

As to `O=C(O)CCCCCc1ccc(N=Nc2c(S(=O)(=O)O)cc3cc(NC(=O)c4cccc(C(=O)Nc5ccc6c(O)c(N=Nc7ccc(CCCCCC(=O)O)cc7)c(S(=O)(=O)O)cc6c5)n4)ccc3c2O)cc1` [Compound 121], the remaining activity at 10 µM turned out to be 0.16%.

On to `O=C(O)/C=C/c1ccc(N=Nc2c(S(=O)(=O)O)cc3cc(NC(=O)c4cccc(C(=O)Nc5ccc6c(O)c(N=Nc7ccc(/C=C/C(=O)O)cc7)c(S(=O)(=O)O)cc6c5)n4)ccc3c2O)cc1` [Compound 123], for which the remaining activity at 10 µM worked out at 0.2%.

With `O=C(O)CC(C(=O)O)c1ccc(N=Nc2c(S(=O)(=O)O)cc3cc(NC(=O)c4cccc(C(=O)Nc5ccc6c(O)c(N=Nc7ccc(C(CC(=O)O)C(=O)O)cc7)c(S(=O)(=O)O)cc6c5)n4)ccc3c2O)cc1` (centres unmarked) [Compound 124], the remaining activity at 10 µM stood at 1.2%.

Take `O=C(Nc1ccc2c(O)c(N=Nc3cc(F)c(F)c(C(=O)O)c3F)c(S(=O)(=O)O)cc2c1)c1cccc(C(=O)Nc2ccc3c(O)c(N=Nc4cc(F)c(F)c(C(=O)O)c4F)c(S(=O)(=O)O)cc3c2)n1` [Compound 126]: the remaining activity at 10 µM amounted to 0.16%.

On to `COc1cc(N=Nc2c(S(=O)(=O)O)cc3cc(NC(=O)c4cccc(C(=O)Nc5ccc6c(O)c(N=Nc7cc(OC)c(OC)c(OC)c7C(=O)O)c(S(=O)(=O)O)cc6c5)n4)ccc3c2O)c(C(=O)O)c(OC)c1OC` [Compound 128], for which the remaining activity at 10 µM was 5%.

As for `Cc1cc(C(=O)O)ccc1N=Nc1c(S(=O)(=O)O)cc2cc(NC(=O)c3cccc(C(=O)Nc4ccc5c(O)c(N=Nc6ccc(C(=O)O)cc6C)c(S(=O)(=O)O)cc5c4)n3)ccc2c1O` [Compound 130], the remaining activity at 10 µM was found to be 0.35%.

For `O=C(Nc1ccc2c(O)cc(S(=O)(=O)O)cc2c1)c1cc(=O)cc(C(=O)Nc2ccc3c(O)cc(S(=O)(=O)O)cc3c2)o1` [Compound 131], the remaining activity at 10 µM was 48%.

Still in this test, the particulars now being: 0.05 h, read-out: % RT activity remaining at 10 μM.
On to `O=C(NC(=O)Oc1ccccc1)Nc1ccc2cc(S(=O)(=O)O)cc(O)c2c1` [Compound 30], for which the remaining activity at 10 µM was found to be 87%.

The test is the same for the next values; noted with them: read-out: IC50 (RT activity).
With `O=C(O)/C=C/c1ccc(N=Nc2c(S(=O)(=O)O)cc3ccc(NC(=O)Nc4ccc5cc(S(=O)(=O)O)c(N=Nc6ccc(/C=C/C(=O)O)cc6)c(O)c5c4)cc3c2O)cc1` [Compound 86], the IC50 is 1200 nM.
